The text below walks through data of patent US6562843B1, “Substituted 3-pyridyl-4-arylpyrroles, and related therapeutic and prophylactic methods” (Ortho-McNeil Pharmaceutical, Inc., priority 1999, dated 2003).

In one assay the test system is TNF-α production. Nature of the assay: In-Vitro Whole Cell Assay for TNF-α Inhibition (LPS-stimulated PBMC, ELISA). The note with it: LPS overnight, TNF-α by ELISA. The class given is cell-based. On the procedure: B. In-Vitro Whole Cell Assay for TNF-α Inhibition
Freshly obtained venous blood was anticoagulated with heparin, diluted with an equal volume of phosphate buffered saline (“PBS”) and placed in a sterile tube or other container. Aliquots (30 mL) of this mixture were transferred to centrifuge tubes which were underlaid with Ficoll-Hypaque (15 mL). The prepared tubes were centrifuged at 400×g, without braking, for 30 min at room temperature. Approximately ½ to ⅔ of the platelet layer above the mononuclear cell band was removed with a pipette. The majority of the mononuclear cell layer was carefully removed using a pipette and these PBMC's were diluted with PBS and spun at 600×g for 15 min. The resulting PBMC's were washed with another portion of PBS and spun at 400×g for 10 min at room temperature. The recovered pellets were diluted in low endotoxin RPMI/1% FCS culture medium, and gave a cell concentration of 0.5-2.0×10^6 PMBC/mL. A small volume of the suspension was removed for counting on a hemocytometer and the remaining preparation was centrifuged at 200×g for 15 min at room temperature. The recovered pelleted PMBC's were resuspended in RPMI/1% FCS to a concentration of 1.67×10^6/mL.
To run the assay, the PBMC suspension (180 μL) was transferred to duplicate wells of a 96-well flat-bottom microtiter plate and incubated for 1 h at 37° C. A solution of test compound (10 μL: prepared at 20× the desired final concentration) was added to each well and the plate was incubated for 1 h at 37° C. A solution (10 μL) of LPS in RPMI/1% FCS (200 ng/mL) was added and the wells were incubated overnight at 37° C. The supernate (100 μL) was removed from each well and diluted with RPMI/1% FCS (400 μL). The samples were analyzed for TNF-α using a commercial ELISA kit (Genzyme).
The compounds were tested for their ability to inhibit TNF-α production. The IC50 nM results are listed for the indicated compounds.

Assay [1] relates to LPS-induced TNF-α production. In words: In Vivo Rodent Assay for Inhibition of TNF-α Production (mice). Set-up: species or system Mice (BALB/cJ females). As to conditions: oral dosing, LPS 1 mg/kg i.p., serum TNF-α; for inhibition in vivo at 10 mg/kg / inhibition in vivo at 25 mg/kg: Mus musculus, 1 h; for inhibition in vivo at 25 mg/kg / TNF-α % Inhibition Mouse: 25 mg/kg. On the procedure: C. In Vivo Rodent Assay for Inhibition of TNF-α Production
Mice (BALB/cJ females, Jackson Laboratories) or rats (Lewis males, Charles River) were fasted for 30 min prior to oral dosing with 5-10 mL/kg of test compound at 5-50 mg/kg. Thirty minutes after dosing, the animals were injected intraperitoneally with LPS at 1 mg/kg and returned to their cages for 1 h. Animals were anesthetized by CO2, exsanguinated by cardiac puncture and whole blood collected (0.1-0.7 mL). The blood was allowed to clot and serum was transferred to a centrifuge tube. This sample was centrifuged, and serum was collected, aliquoted and frozen at −80° C. Samples were tested by commercial ELISA's for TNF-α (Endogen for mouse TNF-α and Biosource for rat TNF-α).

The target of assay [2] is T1, purified recombinant p38 (6×His-p38 expressed in E.coli) (Homo sapiens, UniProt Q16539).
T1 construct: 6xHis; made in house; host or cells: E. coli
T1 sequence (Q16539 whole entry): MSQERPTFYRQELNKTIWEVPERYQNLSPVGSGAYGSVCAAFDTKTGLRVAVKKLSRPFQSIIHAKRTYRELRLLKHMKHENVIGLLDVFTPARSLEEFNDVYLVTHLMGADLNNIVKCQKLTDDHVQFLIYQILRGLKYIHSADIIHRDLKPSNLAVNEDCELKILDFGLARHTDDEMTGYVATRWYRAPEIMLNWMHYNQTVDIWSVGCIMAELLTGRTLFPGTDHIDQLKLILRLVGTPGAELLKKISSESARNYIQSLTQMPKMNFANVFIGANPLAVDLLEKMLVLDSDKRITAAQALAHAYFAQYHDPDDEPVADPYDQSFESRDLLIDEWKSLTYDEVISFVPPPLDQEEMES
Nature of the assay: p38 Inhibition In-Vitro Enzyme Assay. The note with it: myelin basic protein substrate, 33P-ATP; for inhibition at 10 µM: read-out: % p38 inhib @ 10 μM. The class given is biochemical. On the procedure: A. p38 Inhibition In-Vitro Enzyme Assay
A solution (38 μL) of purified recombinant p38 (6×His-p38 expressed in E.coli), myelin basic protein substrate (determined empirically), and a buffer of pH 7.5 (Hepes:25 mM, MgCl2:10 mM, MnCl2:10 mM) were added to 92 wells of a 96-well round bottom polypropylene plate. The amount of enzyme was determined empirically based on the linear range of the assay and the acceptable signal to noise ratio. The remaining wells were used for control “CTRL”) and background (“BKG”). The CTRL was prepared with the enzyme, substrate buffer and 2% DMSO, and the BKG was prepared with substrate buffer and 2% DMSO.
A solution (12 μL) of the test compound in DMSO was added to the testing wells. […] The ATP/^33P-ATP solution (10 μL containing 50 μM unlabeled ATP and 1 μCi ^33P-ATP) was added to all wells and the completed plates were mixed and incubated at 30° C. for 30 min. Ice-cold 50% TCA/10 mM sodium phosphate (60 μL) was added to each well and the plates were kept on ice for 15 min. The contents of each well were transferred to the wells of a 96-well filterplate (Millipore, MultiScreen-DP) and the filterplate was placed on a vacuum manifold fitted with a waste collection tray. The wells were washed five times with 10% TCA/10 mM sodium phosphate (200 μL) under vacuum. MicroScint-20 scintillant was added, and the plates were sealed using Topseal-S sheets and counted in a Packard TopCount scintillation counter using a ^33P liquid program with color quench correction, where the output is in color quench-corrected cpm. The % inhibition of each test compound as shown in Table 2 was calculated by the following formula: % inhibition=[1−(sample−BKG)/(CTRL−BKG)]×100.
[…] In addition, the IC50 was calculated for some compounds using the Deltagraph 4-parameter curve-fitting program.

Structures can show the parent of a compound that is named as a salt.

`OCCCc1[nH]cc(-c2ccc(F)cc2)c1-c1ccncc1` [compound 46, 4-(4-Fluorophenyl)-2-(3-hydroxypropyl)-3-(4-pyridyl)pyrrole] returned an IC50 in the assay on TNF-α production of 0.544 µM.
In assay [1], `CN1CCCC1CCn1cc(-c2ccc(F)cc2)c(-c2ccncc2)c1CCCc1ccccc1` (centres unmarked) [compound 41] yielded an inhibition in vivo at 10 mg/kg of 100% and an inhibition in vivo at 25 mg/kg of 100%. In the assay with TNF-α production, this compound yielded an IC50 of 0.005 µM.
`COc1cccc(-c2cn(CCCc3ccccc3)cc2-c2ccncc2)c1` [compound 23] had an IC50 with TNF-α production of 2 µM.
As to `Fc1ccc(-c2cn(CCN3CCCC3)c(CCCc3ccccc3)c2-c2ccncc2)cc1` [compound 45], in assay [1], 10 mg/kg produced 99% inhibition in vivo and the inhibition in vivo at 25 mg/kg was found to be 99%. Further, in the assay on TNF-α production, the IC50 was 0.003 µM.
In assay [1], `Fc1ccc(-c2c[nH]cc2-c2ccncc2)cc1` [compound 27] returned an inhibition in vivo at 10 mg/kg of 73% and an inhibition in vivo at 25 mg/kg of 100%. The compound further came in with an IC50 with TNF-α production of 0.09 µM.
`Fc1ccc(-c2c[nH]c(CCCN3CCOCC3)c2-c2ccncc2)cc1` [compound 47, 4-(4-Fluorophenyl)-2-(3-morpholinopropyl)-3-(4-pyridyl)pyrrole] came in with an inhibition in vivo at 25 mg/kg in assay [1] of 77%. For the same compound, in the assay on TNF-α production, the IC50 was 0.177 µM.
`CN(C)c1ccc(-c2cn(C)cc2-c2ccncc2)cc1` [compound 36]: in the assay on TNF-α production, the concentration for half-maximal inhibition (IC50) came to 0.5 µM.
In assay [1], `Cn1cc(-c2ccncc2)c(-c2ccc(F)c(C(F)(F)F)c2)c1` [compound 7] had an inhibition in vivo at 10 mg/kg of 61% and an inhibition in vivo at 25 mg/kg of 79%. In addition, in the assay with TNF-α production, the IC50 was 0.1 µM.
In the case of `COc1cccc(-c2cn(-c3ccc(N)cc3)cc2-c2ccncc2)c1` [compound 17], the “TNF-α % Inhibition Mouse” value in assay [1] is listed as 66%. Further, in the assay with TNF-α production, the half-inhibitory concentration (IC50) is 0.095 µM.
In assay [1], `Fc1ccc(-c2cn(CCN3CCCCC3)c(CCCc3ccccc3)c2-c2ccncc2)cc1` [compound 40] gave an inhibition in vivo at 10 mg/kg of 96% and an inhibition in vivo at 25 mg/kg of 96%. In the assay with TNF-α production, this compound yielded a concentration for half-maximal inhibition (IC50) of 0.003 µM.
In the case of `CS(=O)(=O)c1ccc(-n2cc(-c3ccncc3)c(-c3ccc(F)c(F)c3)c2)cc1` [compound 5], the concentration for half-maximal inhibition (IC50) with TNF-α production was found to be 0.03 µM.
For `Cn1cc(-c2ccncc2)c(-c2cccc([N+](=O)[O-])c2)c1` [compound 11], in assay [1], the inhibition in vivo at 10 mg/kg was 74% and the inhibition in vivo at 25 mg/kg came out at 94%. For the same compound, half-maximal inhibition in the assay with TNF-α production (IC50) required 0.1 µM.
On the same counts, the results for `Fc1ccc(-c2cn(CCN3CCOCC3)c(CCCc3ccccc3)c2-c2ccncc2)cc1` [compound 43] are 93%, 93% and 0.001 µM.
Regarding `Nc1ccc(-n2cc(-c3ccc(F)cc3)c(-c3ccncc3)c2CCCc2ccccc2)cc1` [compound 33, 1-(4-Aminophenyl)-4-(4-fluorophenyl)-2-(3-phenylpropyl)-3-(4-pyridyl)pyrrole], the inhibition at 10 µM in assay [2] is 51%. For the same compound, it took 0.008 µM to reach half-maximal inhibition with TNF-α production (IC50).
Take `Cn1cc(-c2ccncc2)c(-c2ccc([S+](C)[O-])cc2)c1` (centres unmarked) [compound 37]: in the assay on TNF-α production, the IC50 worked out at 3 µM.
As for `Cn1cc(-c2ccncc2)c(-c2ccc(F)cc2)c1` [compound 29, 1-Methyl-3-(4-fluorophenyl)-4-(4-pyridyl)pyrrole], the inhibition at 10 µM in assay [2] turned out to be 34%. The compound also registered a half-inhibitory concentration (IC50) in the assay with TNF-α production of 0.2 µM.
With `Cn1cc(-c2ccncc2)c(-c2cc(F)cc(C(F)(F)F)c2)c1` [compound 8], in the assay on TNF-α production, it took 1.5 µM to reach half-maximal inhibition (IC50).
`COc1cccc(-c2cn(-c3ccc(NC(C)=O)cc3)cc2-c2ccncc2)c1` [compound 16]: in assay [1], the “TNF-α % Inhibition Mouse” value is on record as 50%. Moreover, in the assay on TNF-α production, the IC50 turned out to be 0.075 µM.
In the assay on TNF-α production, `Oc1cccc(-c2c[nH]cc2-c2ccncc2)c1` [compound 12, 3-(3-Hydroxyphenyl)-4-(4-pyridyl)pyrrole Hydrobromide] displayed a half-inhibitory concentration (IC50) of 0.3 µM.
On to `N#Cc1ccc(-n2cc(-c3ccncc3)c(-c3ccc(F)c(F)c3)c2)cc1` [compound 4], for which, in assay [2], the inhibition at 10 µM was 21%. In addition, in the assay on TNF-α production, half-maximal inhibition (IC50) required 0.002 µM.
In the case of `COc1cccc(-c2cn(-c3ccc(S(C)(=O)=O)cc3)cc2-c2ccncc2)c1` [compound 19], the “TNF-α % Inhibition Mouse” value in assay [1] is listed as −127%. The compound further gave an IC50 with TNF-α production of 0.03 µM.
`COc1cccc(-c2c[nH]cc2-c2ccncn2)c1` [compound 24]: the midpoint of inhibition in the assay on TNF-α production, the IC50, lay at 0.25 µM.
For `Fc1ccc(-c2c[nH]cc2-c2ccncc2)cc1F` [compound 1], the “TNF-α % Inhibition Mouse” value in assay [1] is 96%. The compound also returned a 50% inhibitory concentration (IC50) in the assay on TNF-α production of 0.02 µM.
Consider `Cn1cc(-c2ccncc2)c(-c2ccsc2)c1` [compound 25], for which half-maximal inhibition in the assay with TNF-α production (IC50) was put at 0.9 µM.
In the case of `CN(C)CCCn1cc(-c2ccc(F)cc2)c(-c2ccncc2)c1CCCc1ccccc1` [compound 44], in assay [1], the inhibition in vivo at 10 mg/kg was 100% and the inhibition in vivo at 25 mg/kg was 100%. Half-maximal inhibition in the assay on TNF-α production (IC50) was put at 0.008 µM.
Consider `Cn1cc(-c2ccncc2)c(-c2ccc(F)c(F)c2)c1` [compound 2], for which the “% p38 inhib @ 10 μM” value in assay [2] is 15%. 0.03 µM corresponded to half-maximal inhibition in the assay with TNF-α production (IC50).
For `Cn1cc(-c2ccncc2)c(-c2cccc(C(F)(F)F)c2)c1` [compound 9], in the assay with TNF-α production, the IC50 turned out to be 0.125 µM.
In assay [1], `CN1CCCC(Cn2cc(-c3ccc(F)cc3)c(-c3ccncc3)c2CCCc2ccccc2)C1` (centres unmarked) [compound 42] came in with an inhibition in vivo at 10 mg/kg of 100% and an inhibition in vivo at 25 mg/kg of 100%. This compound came in with a half-inhibitory concentration (IC50) in the assay on TNF-α production of 0.002 µM.
In the case of `COc1cccc(-c2cn(-c3ccc([N+](=O)[O-])cc3[N+](=O)[O-])cc2-c2ccncc2)c1` [compound 21], in the assay with TNF-α production, the IC50 was 0.08 µM.
In assay [1], `Fc1ccc(-c2cn(CCCN3CCCCC3)c(CCCc3ccccc3)c2-c2ccncc2)cc1` [compound 39] gave an inhibition in vivo at 10 mg/kg of 36% and an inhibition in vivo at 25 mg/kg of 100%. The compound further yielded an IC50 in the assay on TNF-α production of 0.005 µM.
For `Cn1cc(-c2ccccc2)c(-c2ccncc2)c1` [compound 38], inhibition in the assay with TNF-α production was half-maximal at 0.35 µM (IC50).
The same measure, in the same setting: to `COc1cccc(-c2cn(-c3ccccn3)cc2-c2ccncc2)c1` [compound 20] belongs 0.15 µM.
Compound `Cn1cc(-c2ccncc2)c(-c2ccncc2)c1` [compound 34] returned an IC50 in the assay on TNF-α production of 3 µM.
On the same count and under the same terms, the result for `Cn1cc(-c2ccncc2)c(-c2cc(F)cc(F)c2)c1` [compound 6] reads 0.175 µM; that for `COc1cccc(-c2c[nH]cc2-c2ccncc2)c1` [compound 13, 3-(3-Methoxyphenyl)-4-(4-pyridyl)pyrrole], 0.055 µM; that for `COc1ccc(-c2cn(C)cc2-c2ccncc2)cc1` [compound 26], 2 µM.
In turn, `CSc1ccc(-c2cn(C)cc2-c2ccncc2)cc1` [compound 35] came in with a 50% inhibitory concentration (IC50) in the assay on TNF-α production of 0.25 µM.
In the assay with TNF-α production, `COc1cccc(-c2cn(-c3ccc([N+](=O)[O-])cc3)cc2-c2ccncc2)c1` [compound 15] yielded an IC50 of 0.02 µM.
On to `Cn1cc(-c2ccncc2)c(-c2cccc(F)c2)c1` [compound 10], for which, in the assay with TNF-α production, the half-inhibitory concentration (IC50) is 0.125 µM.
